In PubChem BioAssay AID330 (DTP/NCI, 2004):
“And” between values parts separate entries of the source, which are not always exact repeats. Identical values can stand only once. Inconclusive results and toxic doses are left out.

Test system: P388 leukemia ip, CD2F1 mice, survival T/C
Test: NCI In Vivo Anticancer Drug Screen. Data for tumor model P388 Leukemia (intraperitoneal) in CD2F1 (CDF1) mice
Settings: endpoint: median survival time, higher = longer survival
Method in brief: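 Mice carrying the transplanted tumor received test compound or vehicle. Survival was recorded in each group, and the value is the treated-group measurement divided by that of the vehicle-treated control group.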

[1] = dose: 50.0 mg/kg/injection, schedule: Q01DX009 (ip), vehicle: Klucel (hydroxypropylcellulose) (HPC)
[2] = dose: 100.0 mg/kg/injection, schedule: Q01DX009 (ip), vehicle: Klucel (hydroxypropylcellulose) (HPC)
[3] = dose: 50.0 mg/kg/injection, schedule: Q01DX005 (ip), vehicle: Klucel (hydroxypropylcellulose) (HPC)
[4] = dose: 100.0 mg/kg/injection, schedule: Q01DX005 (ip), vehicle: Klucel (hydroxypropylcellulose) (HPC)
[5] = dose: 200.0 mg/kg/injection, schedule: Q01DX005 (ip), vehicle: Klucel (hydroxypropylcellulose) (HPC)
[6] = dose: 50.0 mg/kg/injection, schedule: Q01DX009 (ip), vehicle: saline
[7] = dose: 100.0 mg/kg/injection, schedule: Q01DX009 (ip), vehicle: saline
[8] = dose: 25.0 mg/kg/injection, schedule: Q01DX009 (ip), vehicle: saline
[9] = dose: 100.0 mg/kg/injection, schedule: Q04DX003 (ip), vehicle: saline
[10] = dose: 200.0 mg/kg/injection, schedule: Q04DX003 (ip), vehicle: saline
[11] = dose: 400.0 mg/kg/injection, schedule: Q04DX003 (ip), vehicle: saline

CC(C)NC(=O)OCc1c(COC(=O)NC(C)C)c(-c2ccc(Cl)cc2)n2c1CCC2
T/C (dose: 3.12 mg/kg/injection, schedule: Q01DX005 (ip), vehicle: distilled water + Tween-80): 161 % of control
T/C (dose: 6.25 mg/kg/injection, schedule: Q01DX005 (ip), vehicle: distilled water + Tween-80): 152 % of control
T/C (dose: 12.5 mg/kg/injection, schedule: Q01DX005 (ip), vehicle: distilled water + Tween-80): 186 % of control and 190 % of control
T/C (dose: 25.0 mg/kg/injection, schedule: Q01DX005 (ip), vehicle: distilled water + Tween-80): 186 % of control
T/C (dose: 50.0 mg/kg/injection, schedule: Q01DX005 (ip), vehicle: distilled water + Tween-80): 110 % of control and 93 % of control

O=[N+]([O-])c1ccc(N(CCO)CCO)c2c1no[n+]2[O-]
T/C (dose: 3.12 mg/kg/injection, schedule: Q01DX005 (ip), vehicle: saline with Tween-80): 117 % of control
T/C (dose: 6.25 mg/kg/injection, schedule: Q01DX005 (ip), vehicle: saline with Tween-80): 122 % of control
T/C (dose: 8.0 mg/kg/injection, schedule: Q04DX003 (ip), vehicle: saline): 111 % of control
T/C (dose: 16.0 mg/kg/injection, schedule: Q04DX003 (ip), vehicle: saline): 121 % of control

CC(C)CCN=Cc1ccccc1O.CC(C)CCN=Cc1ccccc1O.[Zn]
T/C [1]: 98 % of control
T/C [2]: 104 % of control

CC(C)C(=O)CC(c1ccccc1)P(=O)(c1ccccc1)c1ccccc1 (stereo unspecified)
T/C [3]: 102 % of control
T/C [4]: 103 % of control
T/C [5]: 103 % of control

O=C1NC2(CCCCC2)C(=O)N1CCCN1C(=O)NC2(CCCCC2)C1=O
T/C (dose: 60.0 mg/kg/injection, schedule: Q01DX005 (ip), vehicle: saline with Tween-80): 107 % of control
T/C (dose: 120.0 mg/kg/injection, schedule: Q01DX005 (ip), vehicle: saline with Tween-80): 102 % of control
T/C (dose: 240.0 mg/kg/injection, schedule: Q01DX005 (ip), vehicle: saline with Tween-80): 101 % of control

CC(=O)OC1C(C)OC(OC2C(OC(=O)C3CCC4C(C3)OC3(CC(OC(=O)/C=C/c5ccccc5)C(C)CO3)C43CO3)OC(C)C(OC(C)=O)C2OC(C)=O)C(OC(C)=O)C1OC(C)=O (stereo unspecified)
T/C (dose: 3.0 mg/kg/injection, schedule: Q01DX005 (ip), vehicle: saline): 100 % of control
T/C (dose: 3.75 mg/kg/injection, schedule: Q01DX009 (ip), vehicle: saline + alcohol): 100 % of control
T/C (dose: 6.0 mg/kg/injection, schedule: Q01DX005 (ip), vehicle: saline): 106 % of control
T/C (dose: 7.5 mg/kg/injection, schedule: Q01DX009 (ip), vehicle: saline + alcohol): 98 % of control
T/C (dose: 12.0 mg/kg/injection, schedule: Q01DX005 (ip), vehicle: saline): 99 % of control
T/C (dose: 15.0 mg/kg/injection, schedule: Q01DX009 (ip), vehicle: saline + alcohol): 102 % of control
T/C (dose: 24.0 mg/kg/injection, schedule: Q01DX005 (ip), vehicle: saline): 106 % of control
T/C (dose: 30.0 mg/kg/injection, schedule: Q01DX009 (ip), vehicle: saline + alcohol): 104 % of control

CN(C)c1cc(N(C)C)c2cc(C#N)ccc2n1
T/C [1]: 99 % of control
T/C [2]: 98 % of control
T/C (dose: 200.0 mg/kg/injection, schedule: Q01DX009 (ip), vehicle: Klucel (hydroxypropylcellulose) (HPC)): 107 % of control

Cn1c2ccccc2c(=O)c2cc(NC(=O)CCCC(=O)Nc3ccc4c(c3)c(=O)c3ccccc3n4C)ccc21
T/C (dose: 50.0 mg/kg/injection, schedule: Q01DX005 (ip), vehicle: saline with Tween-80): 98 % of control
T/C (dose: 100.0 mg/kg/injection, schedule: Q01DX005 (ip), vehicle: saline with Tween-80): 99 % of control
T/C (dose: 200.0 mg/kg/injection, schedule: Q01DX005 (ip), vehicle: saline with Tween-80): 101 % of control

CN1C(=O)Cn2c(nn(CCN3CCCC3)c(=O)c2=O)-c2cc(Cl)ccc21
T/C [6]: 103 % of control
T/C [7]: 105 % of control
T/C (dose: 200.0 mg/kg/injection, schedule: Q01DX009 (ip), vehicle: saline): 103 % of control

N#CC1C(=O)NC(=O)C(C#N)C1C1C(=O)NC2CCCCC21 (stereo unspecified)
T/C (dose: 50.0 mg/kg/injection, schedule: Q01DX009 (ip), vehicle: saline with Tween-80): 114 % of control
T/C (dose: 100.0 mg/kg/injection, schedule: Q01DX009 (ip), vehicle: saline with Tween-80): 99 % of control
T/C (dose: 200.0 mg/kg/injection, schedule: Q01DX009 (ip), vehicle: saline with Tween-80): 112 % of control

C=C1C(C(=O)OC)=NNc2c(C(N)=O)ncn21
T/C (dose: 25.0 mg/kg/injection, schedule: Q01DX001 (ip), vehicle: saline): 101 % of control
T/C (dose: 50.0 mg/kg/injection, schedule: Q01DX001 (ip), vehicle: saline): 102 % of control
T/C (dose: 100.0 mg/kg/injection, schedule: Q01DX001 (ip), vehicle: Klucel (hydroxypropylcellulose) (HPC)): 98 % of control
T/C (dose: 200.0 mg/kg/injection, schedule: Q01DX001 (ip), vehicle: Klucel (hydroxypropylcellulose) (HPC)): 105 % of control
T/C (dose: 400.0 mg/kg/injection, schedule: Q01DX001 (ip), vehicle: saline): 100 % of control

C1CCN(CCCCN2CCCCC2)CC1
T/C [8]: 93 % of control
T/C [6]: 88 % of control

C=CCC1(O)CC2NC(C1)[C@@H]1OC(C)(C)O[C@H]21 (stereo partly specified)
T/C [3]: 92 % of control
T/C [4]: 87 % of control
T/C [5]: 94 % of control

CO[C@H]1[C@H]2OC(C)(C)O[C@H]2O[C@H]1/C=C1\CC(=O)NC1=O
T/C [6]: 111 % of control
T/C (dose: 50.0 mg/kg/injection, schedule: Q01DX009 (ip), vehicle: suspension in saline): 96 % of control
T/C [7]: 116 % of control
T/C (dose: 100.0 mg/kg/injection, schedule: Q01DX009 (ip), vehicle: suspension in saline): 104 % of control
T/C (dose: 200.0 mg/kg/injection, schedule: Q01DX009 (ip), vehicle: suspension in saline): 110 % of control

Brc1cnc2nc(-c3cccc4ccccc34)[nH]c2c1
T/C (dose: 100.0 mg/kg/injection, schedule: Q01DX001 (ip), vehicle: saline with Tween-80): 96 % of control
T/C (dose: 200.0 mg/kg/injection, schedule: Q01DX001 (ip), vehicle: saline with Tween-80): 94 % of control
T/C (dose: 400.0 mg/kg/injection, schedule: Q01DX001 (ip), vehicle: saline with Tween-80): 91 % of control

OCC(F)(F)C(F)(F)C(F)(F)F
T/C [9]: 104 % of control
T/C [10]: 90 % of control
T/C [11]: 90 % of control

COC1/C=C/OC2(C)Oc3c(C)c(O)c4c(c3C2=O)C(N)=C(NC2CC2)C(=NC(=O)/C(C)=C\C=C\C(C)C(O)C(C)C(O)C(C)C(OC(C)=O)C1C)C4=O (stereo unspecified)
T/C (dose: 25.0 mg/kg/injection, schedule: Q01DX009 (ip), vehicle: Klucel (hydroxypropylcellulose) (HPC)): 102 % of control
T/C [1]: 103 % of control
T/C [2]: 119 % of control

NC(=O)COC1OC(CO)C(O)C(O)C1O (stereo unspecified)
T/C [3]: 97 % of control
T/C [4]: 100 % of control
T/C [5]: 107 % of control

C/C(=N\NC(=S)NNC(=S)N1CCCc2ccccc21)c1ccccn1
T/C (dose: 100.0 mg/kg/injection, schedule: Q04DX002 (ip), vehicle: Klucel (hydroxypropylcellulose) (HPC)): 113 % of control
T/C (dose: 200.0 mg/kg/injection, schedule: Q04DX002 (ip), vehicle: Klucel (hydroxypropylcellulose) (HPC)): 115 % of control

O=C1C[CH]([Ge](=[O])[O][Ge](=[O])[CH]2CC(=O)NC(=O)N2)NC(=O)N1 (stereo unspecified)
T/C (dose: 15.0 mg/kg/injection, schedule: Q01DX005 (ip), vehicle: water): 97 % of control
T/C (dose: 30.0 mg/kg/injection, schedule: Q01DX005 (ip), vehicle: water): 99 % of control
T/C (dose: 60.0 mg/kg/injection, schedule: Q01DX005 (ip), vehicle: water): 111 % of control
T/C (dose: 120.0 mg/kg/injection, schedule: Q01DX005 (ip), vehicle: water): 103 % of control and 118 % of control
T/C (dose: 240.0 mg/kg/injection, schedule: Q01DX005 (ip), vehicle: water): 95 % of control

Cc1cc(NC(=O)Nc2ccc(C3=NCCN3)cc2)ccc1NC(=O)Nc1ccc(C2=NCCN2)cc1
T/C [9]: 100 % of control
T/C [10]: 104 % of control
T/C [11]: 109 % of control

N=C(N)c1ccc(/C=C\C=C/c2cc3cc(C(=N)N)ccc3o2)cc1
T/C (dose: 1.56 mg/kg/injection, schedule: Q04DX003 (ip), vehicle: saline with Tween-80): 107 % of control
T/C (dose: 3.12 mg/kg/injection, schedule: Q04DX003 (ip), vehicle: saline with Tween-80): 122 % of control
T/C (dose: 3.12 mg/kg/injection, schedule: Q04DX003 (ip), vehicle: saline): 115 % of control
T/C (dose: 12.5 mg/kg/injection, schedule: Q04DX003 (ip), vehicle: saline): 124 % of control

C[N+]1(CI)CC2CC(C1)C[N+](C)(CI)C2 (stereo unspecified)
T/C (dose: 12.5 mg/kg/injection, schedule: Q01DX009 (ip), vehicle: saline): 105 % of control
T/C [8]: 110 % of control
T/C [6]: 108 % of control
